Several values for one entry are separate records, joined by “and”; a condition that tells them apart may be missing. Equal values may be shown once.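 Tested at 5 concentrations; 48 h exposure; 96-well plates; endpoints linearly interpolated, else capped at highest concentration. GI50 marks 50% less growth. TGI is the concentration that stops growth completely.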
What was measured:
Experiment in all cases: NCI anticancer screen, dose series, 48 h
HL-60(TB) leukemia = tested on: HL-60(TB) leukemia
SF-268 CNS = tested on: SF-268 CNS
CCRF-CEM leukemia = tested on: CCRF-CEM leukemia
UACC-257 melanoma = tested on: UACC-257 melanoma
CAKI-1 renal = tested on: CAKI-1 renal
A549 NSCLC = tested on: A549 NSCLC
SK-MEL-28 melanoma = tested on: SK-MEL-28 melanoma
M14 melanoma = tested on: M14 melanoma
NCI-H522 lung = tested on: NCI-H522 lung
ACHN renal = tested on: ACHN renal

Structure (SMILES)	TGI (HL-60(TB) leukemia) [µM]	TGI (SF-268 CNS)	TGI (CCRF-CEM leukemia) [µM]	TGI (UACC-257 melanoma)	TGI (CAKI-1 renal)	TGI (A549 NSCLC)	TGI (SK-MEL-28 melanoma)	TGI (M14 melanoma)	TGI (NCI-H522 lung)	TGI (ACHN renal)	GI50 (NCI-H522 lung) [µM]	GI50 (SF-268 CNS) [µM]	GI50 (CCRF-CEM leukemia) [µM]	GI50 (ACHN renal) [µM]	GI50 (UACC-257 melanoma) [µM]	GI50 (CAKI-1 renal) [µM]	GI50 (SK-MEL-28 melanoma) [µM]	GI50 (M14 melanoma) [µM]	GI50 (HL-60(TB) leukemia) [µM]	GI50 (A549 NSCLC) [µM]
O=P(c1ccccc1)(c1ccccc1)C1CC=C(c2ccccc2)C2(CCCC2)C1 (stereo unspecified)	50.7	> 100 µM	> 100	> 100 µM	> 100 µM	> 100 µM	> 100 µM	> 100 µM	–	–	–	–	–	–	–	–	–	–	–	–
COc1ccc(OCC(=O)O)c2c1CCC(C(C)C)C2=O (stereo unspecified)	> 100	–	> 100	> 100 µM	> 100 µM	> 100 µM	> 100 µM	> 100 µM	> 100 µM	> 100 µM	–	–	–	–	–	–	–	–	–	–
CC[C@@H]1C[C@@H]2CN3CCc4c([nH]c5ccc(OC)cc45)C(COC(=O)c4ccc(OC)c(OC)c4)(C2)C13	39.2	> 100 µM	95.7	37.8 µM	> 100 µM	> 100 µM	> 100 µM	41.8 µM	–	> 100 µM	–	–	–	–	–	–	–	–	–	–
CCCCCCCCCCCCN1C(C)=CS/C1=C\C=C\c1scc(C)[n+]1CCCCCCCCCCCC	–	5.7 µM	> 100	5.68 µM	12.8 µM	–	17.3 µM	4.61 µM	5.11 µM	10.4 µM	1.7	1.98	1.98	1.84	1.72	1.74	2.74	1.34	–	–
CC(=O)Nc1ccc(/C=C(\NC(=O)c2ccccc2)c2nc3ccc4c(c3[nH]2)C(=O)c2ccccc2C4=O)cc1	–	> 100 µM	> 100	> 100 µM	> 100 µM	96.3 µM	> 100 µM	> 100 µM	> 100 µM	–	–	–	–	–	–	–	–	–	–	–
COc1ccc(-c2ccc(C3CC(c4ccc(O)cc4)=NN3)o2)c([N+](=O)[O-])c1 (stereo unspecified)	38.8	> 100 µM	> 100	–	> 100 µM	84 µM	> 100 µM	> 100 µM	> 100 µM	> 100 µM	39	22.3	4.84	42	–	34.4	45.8	36.1	13	25.7
CN(C)/[N+]([O-])=N/Oc1cc(Nc2cccc(C(=O)O)c2)c([N+](=O)[O-])cc1[N+](=O)[O-]	> 100	78.5 µM	–	> 100 µM	> 100 µM	> 100 µM	> 100 µM	–	> 100 µM	> 100 µM	69.3	30	–	> 100	> 100	> 100	> 100	–	52.2	> 100
O=S(=O)([O-])[O-].[OH3+].[OH3+].[OH3+].[Ru+2].c1ccccc1	> 100	> 100 µM	> 100	> 100 µM	–	> 100 µM	> 100 µM	> 100 µM	–	> 100 µM	–	> 100	> 100	> 100	> 100	–	> 100	> 100	> 100	> 100
COc1ccc(C(=O)/C=C/c2ccc(O)c(O)c2F)c(OC)c1	–	75 µM and 59.1 µM	6.5	18.4 µM and 22.3 µM	75 µM and 44.9 µM	75 µM and > 100 µM	33.4 µM and 30.7 µM	16.7 µM and 28 µM	5.56 µM and 3.18 µM	25.6 µM and > 100 µM	0.481	8.75	–	5.49	10.5	5.73	11.6	–	–	8.62
